“And” between values parts separate entries of the source, which are not always exact repeats. Equal values may be shown once.
target: Sigma non-opioid intracellular receptor 1 (Rattus norvegicus, UniProt Q9R0C9)
Sequence (Q9R0C9 whole entry): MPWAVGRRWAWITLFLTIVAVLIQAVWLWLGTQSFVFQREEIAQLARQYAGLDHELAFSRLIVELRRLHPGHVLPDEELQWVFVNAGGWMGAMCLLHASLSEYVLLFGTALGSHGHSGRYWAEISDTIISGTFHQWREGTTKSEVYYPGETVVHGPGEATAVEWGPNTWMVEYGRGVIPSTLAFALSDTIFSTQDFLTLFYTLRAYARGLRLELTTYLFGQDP

Q: For `CCC12CCN(CC3(O)CC3)C(Cc3ccc(O)cc31)C2(C)C` (stereo unspecified), which Ki is on record?
A: Its Ki is 229 nM.

Q: With `c1ccc(C2(N3CCCCC3)CCCCC2)cc1` as the molecule, how does the Ki read?
A: The Ki was 29 nM and 135 nM.

Q: How did the Ki turn out when `CN[C@@]1(c2ccccc2Cl)CCCCC1=O` [2-(2-Chloro-phenyl)-2-methylamino-cyclohexanone(Ketamine)] was run?
A: Its Ki is 440 nM and 1450 nM.

Q: For `CC1(C2(C)COC(c3ccccc3)(c3ccccc3)O2)CCCCN1` (stereo unspecified) [CAS_4792-18-1], which Ki is on record?
A: Its Ki is 5500 nM and 1900 nM.

Q: With `C[C@@H]1[C@@H]2Cc3ccc(O)cc3[C@@]1(C)CCN2CC1CC1` [(SSS)-12-Cyclopropylmethyl-13-methyl-12-aza-tricyclo[9.1.1.0*3,8*]trideca-3(8),4,6-trien-6-ol(cyclazocine)] as the molecule, how does the Ki read?
A: Its Ki is 69 nM and 125 nM.

Q: With `Cc1cccc(C2(N3CCCCC3)CCCCC2)c1` [PCP,m-OH] as the molecule, how does the Ki read?
A: The Ki was 8 nM and 77 nM.

Q: Which Ki does the source give for `C=CCN1CC[C@]2(C)c3cc(O)ccc3C[C@@H]1[C@@H]2C` [SKF 10,047 (-)] here?
A: Its Ki is 117 nM and 134 nM and 229 nM and 571 nM.

Q: With `CCC1(c2ccccc2)OCC([C@H]2CCCCN2)O1` (stereo partly specified) as the molecule, how does the Ki read?
A: Its Ki is 82 nM and 152 nM.

Q: `Oc1ccc2c(c1)C13CCCCC1C(C2)N(CC1CC1)CC3` (stereo unspecified) [17-(cyclopropylmethyl)-17-azatetracyclo[7.5.3.0^{1,10}.0^{2,7}]heptadeca-2(7),3,5-trien-4-ol] was tested. Which Ki did it give?
A: Its Ki is 226 nM and 287 nM.

Q: With `Oc1noc2c1CCNC2` [CAS_64603-91-4] as the molecule, how does the Ki read?
A: Its Ki is greater than 10000 nM.

Q: For `c1ccc(C2(c3ccccc3)OCC(C3CCCCN3)O2)cc1` (racemic), which Ki is on record?
A: The Ki was 23 nM and 141 nM.
